The source of these data is ChEMBL document CHEMBL4602701 (J Med Chem, 2020).

Molecules are shown by their SMILES.

The target of data set [1] is T1, Steroid 17-alpha-hydroxylase/17,20 lyase (Homo sapiens, UniProt P05093).
T1 sequence (P05093 whole entry): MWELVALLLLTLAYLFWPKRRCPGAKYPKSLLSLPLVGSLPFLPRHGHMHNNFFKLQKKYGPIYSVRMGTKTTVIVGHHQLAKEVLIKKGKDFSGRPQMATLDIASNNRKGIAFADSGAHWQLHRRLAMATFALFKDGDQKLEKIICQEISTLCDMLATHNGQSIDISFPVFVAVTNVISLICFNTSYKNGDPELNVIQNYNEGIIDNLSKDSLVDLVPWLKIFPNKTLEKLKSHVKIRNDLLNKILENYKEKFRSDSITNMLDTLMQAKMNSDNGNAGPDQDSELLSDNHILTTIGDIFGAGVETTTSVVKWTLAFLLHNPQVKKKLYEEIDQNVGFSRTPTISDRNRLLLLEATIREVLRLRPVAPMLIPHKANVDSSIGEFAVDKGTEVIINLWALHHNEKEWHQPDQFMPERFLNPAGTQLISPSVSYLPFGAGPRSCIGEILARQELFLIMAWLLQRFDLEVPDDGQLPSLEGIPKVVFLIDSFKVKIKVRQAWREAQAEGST
Put plainly: Binding affinity to C-terminal 6-His-tagged human CYP17A1 expressed in Escherichia coli assessed as induction of spectral changes by measuring rate constant of first reaction at 20 uM using 2 uM CYP17A1 by spectroscopy.

In data set [2] the target is T1, Steroid 17-alpha-hydroxylase/17,20 lyase. The data set is described as follows: Binding affinity to C-terminal 6-His-tagged human CYP17A1 expressed in Escherichia coli assessed as induction of spectral changes by measuring rate constant of second reaction at 20 uM using 2 uM CYP17A1 by spectroscopy.
Data set [3] has the same target. The data set is described as follows: Binding affinity to C-terminal 6-His-tagged human CYP17A1 expressed in Escherichia coli assessed as induction of type II binding spectral changes at 50 uM using 1 uM CYP17A1 by spectroscopy.

With `CC(C)[C@](O)(c1ccc2cc(OC(F)F)c(OC(F)F)cc2c1)c1c[nH]nn1` [SEVITERONEL], the K in data set [1] was 44 to 45 s⁻¹; in data set [2], 1.9 s⁻¹. Besides, in data set [3], the outcome was Active.
